For experiment [1], the system named is Escherichia coli. The experiment in a line: Bactericidal activity test with variation of the period of action. In kind it is cell-based. The method, then: (§1) In order to check the bactericidal activity of the ozonized surfactant, a bactericidal activity test was performed with variation of the period of action.
(§2) Developed colonies were scraped off and a bacterial solution of about 10^8 CFU/mL was prepared.
(§3) Into 50 mL centrifuging tubes, 10 mL each of 0.5% and 0.05% aqueous solutions of the ozonized surfactant obtained in Example 4 were separately poured. To each solution, 0.1 mL of sample bacterial solution was inoculated and mixed for a predetermined period of action at room temperature. To 10 mL of SCDLP bouillon medium (EIKEN CHEMICAL) of which the effectiveness as an inactivator had been confirmed beforehand, 0.1 mL of the resulting solution after a predetermined period of action was added for inactivation of bactericidal components. Then the bacteria count was measured. As a control test, the same operation was performed with the use of an unozonized surfactant or sterile purified water. A 10-fold serial dilution of each sample solution after inactivation was prepared. Each 1 mL of the undiluted and diluted sample solutions were separately mixed with about 20 mL of agar medium, and then cultured. After culturing, the number of colony forming units per 1 mL of each sample solution was counted.

The subject of experiment [2] is Pseudomonas aeruginosa. Described as above. Type of experiment: cell-based. The method, then: as §1, §2, §3
The subject of experiment [3] is Staphylococcus aureus. Described as above. In kind it is cell-based. As for the experimental part:
as §1, §2, §3

Experiment [4] concerns insects such as ants. The experiment in a line: Repellent activity (Test Example 14). In kind it is in vivo, pill bug. Particulars: 8 hours. As for the experimental part: The repellent performance of the ozonized surfactant of the present invention was checked. […] In addition, 1 g of honey was instilled into the center. […] These specimens were placed on leaf mold in a flower bed, and the conditions were observed 8 hours later.

Experiment [5] deals with slug. Nature of the experiment: Insecticidal activity: test of killing slugs. In kind it is in vivo. Conditions: 1% aqueous solution, 2 pushes: 1.88 mL sprayed from 15 cm above. The method, then:
In order to check the insect control performance of the ozonized surfactant, a test of killing slugs was performed. A slug was put into a glass petri dish. Onto the slug, a 1% aqueous solution of the ozonized surfactant obtained in Example 4, 5, 7, 9 or 10 (2 pushes: 1.88 mL) was sprayed from 15 cm above. After that, the time elapsed until the slug died (the motion stopped) was measured. As a control, the same evaluation was simultaneously performed with a commercial insecticide (product name: NEW Namekuji (slug) Spray, made by Sumitomo Chemical Garden Products Inc., Lot No. 11.05 0806JE) containing a natural substituted phenol, a copper compound and an alcohol, as active ingredients.

Experiment [6] has as its system Escherichia coli. The experiment in a line: Sterilizing activity value test. In kind it is cell-based. Conditions: 0.5% aqueous solution, contact time 5 min, 25 ± 1° C., vs 0.05 (w/v %) Polysorbate 80 control. As for the experimental part: (§4) In order to check the effect of the ozonized surfactant as a sterilizing detergent, a sterilizing activity test was performed. A 0.5% aqueous solution of the solution obtained in Example 4 was tested based on the sterilizing activity test of home care synthetic detergents and soaps, which is a method set by Detergent and Soap Fair Trade Council. […] Each of the control solution and the test sample solutions described in the table below is applied to a test specimen to which bacteria have been inoculated beforehand. After letting the specimens stand for a certain period of time, the viable bacteria count on each specimen is measured. The sterilizing activity value is obtained by subtracting the common logarithm value of the viable bacteria count on the specimen treated with a test sample from the common logarithm value of the viable bacteria count on the specimen treated with the control. […] In a predetermined period of time, an inactivator is applied to inactivate the property suppressing the growth of bacteria and the property killing bacteria, and subsequently the viable bacteria count on the specimen is determined. […]

The subject of experiment [7] is Staphylococcus aureus. Nature of the experiment: Sterilizing activity value test. Type of experiment: cell-based. Conditions: 0.5% aqueous solution, contact time 5 min, 25 ± 1° C., vs 0.05 (w/v %) Polysorbate 80 control. As for the experimental part:
as §4

[8] abbreviates: Conc. 0.05%, period of action 10 min.
Where [9] appears, read: Conc. 0.05%, period of action 30 min.
Where [10] appears, read: Conc. 0.5%, period of action 5 min.
[11] abbreviates: Conc. 0.5%, period of action 10 min.
Where [12] appears, read: Conc. 0.5%, period of action 30 min.

Consider 1 substance from patent publication US20100254928A1, “NOVEL COMPOSITION CONTAINING OZONIZED SURFACTANT” (priority 2007, published 2010).

On to “Ozonized POE (10 EO) oleyl ether [Example 4]”, for which the bacteria count in experiment [1] (Conc. 0.05%, period of action 5 min, 0 min 3.8 × 10^6) was 4.8 × 10^6 CFU/mL; in experiment [1] (setting [8]), <1 × 10^2 CFU/mL; in experiment [1] (setting [9]) it was <1 × 10^2 CFU/mL; in experiment [1] (setting [10]), <1 × 10^2 CFU/mL; in experiment [1] (setting [11]), <1 × 10^2 CFU/mL; in experiment [1] (setting [12]), <1 × 10^2 CFU/mL. Also, the bacteria count in experiment [2] (Conc. 0.05%, period of action 5 min, 0 min 4.5 × 10^6) was 1.5 × 10^2 CFU/mL; in experiment [2] (setting [8]) it was <1 × 10^2 CFU/mL; in experiment [2] (setting [9]) it was <1 × 10^2 CFU/mL; in experiment [2] (setting [10]), <1 × 10^2 CFU/mL; in experiment [2] (setting [11]), <1 × 10^2 CFU/mL; in experiment [2] (setting [12]) it was <1 × 10^2 CFU/mL. The bacteria count in experiment [3] (Conc. 0.05%, period of action 5 min, 0 min 8.2 × 10^6) was <1 × 10^2 CFU/mL; in experiment [3] (setting [8]), 1 × 10^2 CFU/mL; in experiment [3] (setting [9]), <1 × 10^2 CFU/mL; in experiment [3] (setting [10]), <1 × 10^2 CFU/mL; in experiment [3] (setting [11]), <1 × 10^2 CFU/mL; in experiment [3] (setting [12]) it was <1 × 10^2 CFU/mL. Also, the “insects gathered on the specimen” value in experiment [4] (2 mL of 1% aqueous solution on tissue paper with 1 g honey) and in experiment [4] (2 mL of 10% aqueous solution on tissue paper with 1 g honey) was “did not gather at all” in each case. The “Death time of slug” value in experiment [5] was found to be 564 s. Moreover, the sterilizing activity value in experiment [6] is reported as 4.6; in experiment [7] it was 2.8.
